Article PMC4319922, “WIP1 Phosphatase as a Potential Therapeutic Target in Neuroblastoma” (PLoS ONE, 2015)

Target: T1, WIP1 (wild-type p53-induced phosphatase 1, PPM1D) (Homo sapiens, UniProt O15297)
T1 construct: WIP1-ΔExon6-His-pET-23a+ construct
T1 sequence (O15297 1-420 limits assumed): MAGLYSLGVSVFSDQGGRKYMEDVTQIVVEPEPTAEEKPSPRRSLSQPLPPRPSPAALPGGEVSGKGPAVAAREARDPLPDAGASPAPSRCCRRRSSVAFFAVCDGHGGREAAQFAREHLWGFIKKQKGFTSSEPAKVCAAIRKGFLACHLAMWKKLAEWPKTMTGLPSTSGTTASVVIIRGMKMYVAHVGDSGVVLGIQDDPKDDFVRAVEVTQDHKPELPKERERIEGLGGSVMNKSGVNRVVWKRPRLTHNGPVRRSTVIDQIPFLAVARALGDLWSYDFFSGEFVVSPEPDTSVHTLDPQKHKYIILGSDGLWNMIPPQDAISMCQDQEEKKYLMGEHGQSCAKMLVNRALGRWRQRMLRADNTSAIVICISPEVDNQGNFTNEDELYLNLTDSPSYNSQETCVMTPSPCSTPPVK
Assay: in vitro phosphatase assay, free phosphate release (BIOMOL Green), H2AX pS139 phosphopeptide substrate (p53 pS15 peptide:[…])
Type: biochemical

Compound: Cc1ncc(Cl)cc1NCc1ccc(C(=O)N[C@@H](CC2CCCC2)C(=O)NC2CC2)s1 [GSK2830371]
- IC50: 123 nM
